Results published in US20240300927A1, “AMIDES AS CBL-B INHIBITORS” (Genentech, Inc., priority 2021, published 2024).

Tests used:
Cbl-b = Cbl-b (Homo sapiens (Human), UniProt Q13191); test: Cbl-b LCK Ub TR-FRET assay (Cbl-b Lck HTRF); assay type: biochemical; conditions: for (fold-selectivity): Cbl-b and C-Cbl selectivity, Lck HTRF; for IC50: read-out: Cbl-b Lck HTRF IC50
Experimental: (§1) Compounds were 3-fold serially diluted in DMSO in a 384-well polypropylene plate (#P-05525-BC; Labcyte) to generate a source plate with 10 concentrations of each compound, top concentration=2 mM. 80 nL of DMSO or compounds were transferred to each well of a black 384-well ProxiPlate (#6008260; PerkinElmer) using a Labcyte Echo. 1× assay buffer (50 mM HEPES pH7.0, 100 mM NaCl, 0.01% BSA, 0.01% Triton-X100, 1 mM DTT), 2× enzyme solution (16 nM Biotin-Cbl-b or 12 nM Biotin-c-Cbl in 1× assay buffer), 2× kinase mixture (120 nM His-LCK, 1 mM ATP, 10 mM MgCl2 in assay buffer) and 2.33× detection mixture (4.66× solution 1: 163 nM Anti-HA-D2 antibody (#610HADAB; PerkinElmer), 27.96 nM Streptavidin-EU (#AD0062; PerkinElmer), 1.398 mM EDTA in 1× assay buffer+4.66× solution 2: 2.796 μM UBE2D2/Methylated-HA-Ubiquitin thioester adduct (BostonBiochem) in 1× assay buffer) were prepared. 4 μL of 2× enzyme solution was added to each well containing compound, briefly centrifuged to mix, and incubated for 60 min at room temperature. 4 μL of 2× kinase mixture was added, briefly centrifuged to mix, and incubated for 90 min. at room temperature. 6 μL of detection mixture was added to all wells and briefly centrifuged before incubating for 20 min at room temperature. Plates were read for TR-FRET using an Envision at excitation 340 nm, emission at 615 and 665 nm, 4 flashes per well. IC50 was generated using no LCK as the low control and DMSO as the high control.
(§2) Cbl-b Lck HTRF data in Table 3 is measured according to Example 25 herein; C-cbl Lck HTRF data is measured according to Example 25 herein.
(§3) SPR and the LCK biochemical assay are orthogonal assays: SPR is a protein binding assay while the LCK assay is an enzyme activity assay. SPR measures compound binding affinity to CBL-B/C-CBL, whereas LCK assay measures compound inhibition of CBL-B/C-CBL ubiquitin transfer activity.

c-Cbl = c-Cbl (Homo sapiens (Human), UniProt P22681); test: C-cbl LCK Ub TR-FRET assay (C-cbl Lck HTRF); assay type: biochemical
Sequence of c-Cbl (P22681 47-435): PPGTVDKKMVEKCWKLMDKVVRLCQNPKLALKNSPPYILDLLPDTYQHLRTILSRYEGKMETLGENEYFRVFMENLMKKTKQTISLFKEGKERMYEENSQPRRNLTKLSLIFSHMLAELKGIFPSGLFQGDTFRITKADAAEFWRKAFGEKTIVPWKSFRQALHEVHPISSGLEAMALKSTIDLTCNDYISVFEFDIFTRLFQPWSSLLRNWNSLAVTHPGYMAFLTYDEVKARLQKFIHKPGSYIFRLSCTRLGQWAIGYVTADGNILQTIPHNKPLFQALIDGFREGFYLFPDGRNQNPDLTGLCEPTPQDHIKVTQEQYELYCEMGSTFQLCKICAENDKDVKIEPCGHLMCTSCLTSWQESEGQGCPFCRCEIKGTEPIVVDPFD
Experimental: as §1, §2, §3

Sequence of Cbl-b (Q13191 40-426): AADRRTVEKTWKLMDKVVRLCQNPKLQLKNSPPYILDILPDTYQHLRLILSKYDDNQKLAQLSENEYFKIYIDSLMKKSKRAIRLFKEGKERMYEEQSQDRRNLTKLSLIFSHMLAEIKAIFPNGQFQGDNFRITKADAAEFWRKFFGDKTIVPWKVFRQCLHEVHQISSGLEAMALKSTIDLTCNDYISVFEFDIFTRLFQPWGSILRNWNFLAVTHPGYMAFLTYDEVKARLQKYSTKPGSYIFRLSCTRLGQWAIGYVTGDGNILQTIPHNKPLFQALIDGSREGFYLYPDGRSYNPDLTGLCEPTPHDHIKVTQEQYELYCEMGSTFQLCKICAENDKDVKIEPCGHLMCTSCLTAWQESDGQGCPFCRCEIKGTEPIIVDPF

(fold-selectivity) (Cbl-b)	IC50 (Cbl-b) [nM]	IC50 (c-Cbl) [nM]	Compound
(1.8x)	23	400	Cn1cnnc1[C@H](F)[C@](C)(F)c1cccc(NC(=O)c2cc(CN3CCC4(CC4)C3)cc(C3CC3)n2)c1 [Compound 35, 4-(5-azaspiro[2.4]heptan-5-ylmethyl)-6-cyclopropyl-N-(3-((1S,2R)-1,2-difluoro-1-(4-methyl-4H-1,2,4-triazol-3-yl)propan-2-yl)phenyl)picolinamide]
(1.8x)	140	240	Cn1cnnc1[C@H](F)[C@@](C)(F)c1cccc(NC(=O)c2cc(CN3CCC4(CC4)C3)cc(C3CC3)n2)c1 [Compound 36, 4-(5-azaspiro[2.4]heptan-5-ylmethyl)-6-cyclopropyl-N-(3-((1S,2S)-1,2-difluoro-1-(4-methyl-4H-1,2,4-triazol-3-yl)propan-2-yl)phenyl)picolinamide]
(2.0x)	780	1500	Cn1cnnc1[C@@H](F)[C@@](C)(F)c1cccc(NC(=O)c2cc(CN3CCC4(CC4)C3)cc(C3CC3)n2)c1 [Compound 37, 4-(5-azaspiro[2.4]heptan-5-ylmethyl)-6-cyclopropyl-N-(3-((1R,2S)-1,2-difluoro-1-(4-methyl-4H-1,2,4-triazol-3-yl)propan-2-yl)phenyl)picolinamide]
(1.7x)	25	42	Cn1cnnc1[C@@H](F)[C@](C)(F)c1cccc(NC(=O)c2cc(CN3CCC4(CC4)C3)cc(C3CC3)n2)c1 [Compound 38, 4-(5-azaspiro[2.4]heptan-5-ylmethyl)-6-cyclopropyl-N-(3-((1R,2R)-1,2-difluoro-1-(4-methyl-4H-1,2,4-triazol-3-yl)propan-2-yl)phenyl)picolinamide]
(1.9x)	180	340	Cn1cnnc1[C@H](F)[C@](C)(F)c1cccc(NC(=O)c2cc(CN3CCC4(CC4)C3)nc(C3CC3)n2)c1 [Compound 39, 6-(5-azaspiro[2.4]heptan-5-ylmethyl)-2-cyclopropyl-N-(3-((1S,2R)-1,2-difluoro-1-(4-methyl-4H-1,2,4-triazol-3-yl)propan-2-yl)phenyl)pyrimidine-4-carboxamide]
(2.3x)	880	2100	Cn1cnnc1[C@H](F)[C@@](C)(F)c1cccc(NC(=O)c2cc(CN3CCC4(CC4)C3)nc(C3CC3)n2)c1 [Compound 40, 6-(5-azaspiro[2.4]heptan-5-ylmethyl)-2-cyclopropyl-N-(3-((1S,2S)-1,2-difluoro-1-(4-methyl-4H-1,2,4-triazol-3-yl)propan-2-yl)phenyl)pyrimidine-4-carboxamide]
(2.5x)	4800	12000	Cn1cnnc1[C@@H](F)[C@@](C)(F)c1cccc(NC(=O)c2cc(CN3CCC4(CC4)C3)nc(C3CC3)n2)c1 [Compound 41, 6-(5-azaspiro[2.4]heptan-5-ylmethyl)-2-cyclopropyl-N-(3-((1R,2S)-1,2-difluoro-1-(4-methyl-4H-1,2,4-triazol-3-yl)propan-2-yl)phenyl)pyrimidine-4-carboxamide]
(1.4x)	190	270	Cn1cnnc1[C@@H](F)[C@](C)(F)c1cccc(NC(=O)c2cc(CN3CCC4(CC4)C3)nc(C3CC3)n2)c1 [Compound 42, 6-(5-azaspiro[2.4]heptan-5-ylmethyl)-2-cyclopropyl-N-(3-((1R,2R)-1,2-difluoro-1-(4-methyl-4H-1,2,4-triazol-3-yl)propan-2-yl)phenyl)pyrimidine-4-carboxamide]
(2.3x)	320	740	Cn1cnnc1[C@H](F)[C@](C)(F)c1cccc(NC(=O)c2cc(CN3CC(C)(F)C3)nc(C3CC3)n2)c1 [Compound 43, 2-cyclopropyl-N-(3-((1S,2R)-1,2-difluoro-1-(4-methyl-4H-1,2,4-triazol-3-yl)propan-2-yl)phenyl)-6-((3-fluoro-3-methylazetidin-1-yl)methyl)pyrimidine-4-carboxamide]
(2.1x)	2300	4900	Cn1cnnc1[C@H](F)[C@@](C)(F)c1cccc(NC(=O)c2cc(CN3CC(C)(F)C3)nc(C3CC3)n2)c1 [Compound 44, 2-cyclopropyl-N-(3-((1S,2S)-1,2-difluoro-1-(4-methyl-4H-1,2,4-triazol-3-yl)propan-2-yl)phenyl)-6-((3-fluoro-3-methylazetidin-1-yl)methyl)pyrimidine-4-carboxamide]
(2.5x)	130	330	Cn1cnnc1[C@H](F)C1(c2cccc(NC(=O)c3cc(CN4CC(C)(F)C4)cc(C(F)(F)F)n3)c2)COC1 [Compound 60, (R)-N-(3-(3-(fluoro(4-methyl-4H-1,2,4-triazol-3-yl)methyl)oxetan-3-yl)phenyl)-4-((3-fluoro-3-methylazetidin-1-yl)methyl)-6-(trifluoromethyl)picolinamide]
(2.3x)	180	420	Cn1cnnc1[C@@H](F)C1(c2cccc(NC(=O)c3cc(CN4CC(C)(F)C4)cc(C(F)(F)F)n3)c2)COC1 [Compound 61, (S)-N-(3-(3-(fluoro(4-methyl-4H-1,2,4-triazol-3-yl)methyl)oxetan-3-yl)phenyl)-4-((3-fluoro-3-methylazetidin-1-yl)methyl)-6-(trifluoromethyl)picolinamide]
(1.2x)	120	140	Cn1cnnc1[C@H](F)C1(c2cccc(NC(=O)c3cc(CN4CCC5(CC5)C4)nc(C4CC4)n3)c2)COC1 [Compound 62, (R)-6-((5-azaspiro[2.4]heptan-5-yl)methyl)-2-cyclopropyl-N-(3-(3-(fluoro(4-methyl-4H-1,2,4-triazol-3-yl)methyl)oxetan-3-yl)phenyl)pyrimidine-4-carboxamide]
(1.1x)	170	180	Cn1cnnc1[C@@H](F)C1(c2cccc(NC(=O)c3cc(CN4CCC5(CC5)C4)nc(C4CC4)n3)c2)COC1 [Compound 63, (S)-6-((5-azaspiro[2.4]heptan-5-yl)methyl)-2-cyclopropyl-N-(3-(3-(fluoro(4-methyl-4H-1,2,4-triazol-3-yl)methyl)oxetan-3-yl)phenyl)pyrimidine-4-carboxamide]
(1.6x)	210	340	CN(C)Cc1cc(C(=O)Nc2cccc(C3(Cc4nncn4C)COC3)c2)nc(C(F)(F)F)c1 [Compound 67, 4-((dimethylamino)methyl)-N-(3-(3-((4-methyl-4H-1,2,4-triazol-3-yl)methyl)oxetan-3-yl)phenyl)-6-(trifluoromethyl)picolinamide]
(1.8x)	44	78	Cn1cnnc1CC1(c2cccc(NC(=O)c3cc(CN4CCC5(CC5)C4)cc(C(F)(F)F)n3)c2)COC1 [Compound 98, 4-((5-azaspiro[2.4]heptan-5-yl)methyl)-N-(3-(3-((4-methyl-4H-1,2,4-triazol-3-yl)methyl)oxetan-3-yl)phenyl)-6-(trifluoromethyl)picolinamide]
(0.94x)	230	210	C[C@@H](c1cc(C(=O)Nc2cccc(C3([C@@H](F)c4nncn4C)COC3)c2)nc(C2CC2)c1)N1CC(C)(F)C1 [Compound 112, 6-cyclopropyl-N-(3-(3-((R)-fluoro(4-methyl-4H-1,2,4-triazol-3-yl)methyl)oxetan-3-yl)phenyl)-4-((S)-1-(3-fluoro-3-methylazetidin-1-yl)ethyl)picolinamide]

Compound	(fold-selectivity) (Cbl-b)	IC50 (Cbl-b) [nM]	IC50 (c-Cbl) [nM]
Cn1cnnc1[C@H](F)C1(c2cccc(NC(=O)c3cc(CN)cc(C(F)(F)F)n3)c2)COC1.O=CO [Compound 64, (R)-4-(aminomethyl)-N-(3-(3-(fluoro(4-methyl-4H-1,2,4-triazol-3-yl)methyl)oxetan-3-yl)phenyl)-6-(trifluoromethyl)picolinamide formate]	(1.2x)	200	230
Cn1cnnc1[C@@H](F)C1(c2cccc(NC(=O)c3cc(CN)cc(C(F)(F)F)n3)c2)COC1.O=CO [Compound 65, (S)-4-(aminomethyl)-N-(3-(3-(fluoro(4-methyl-4H-1,2,4-triazol-3-yl)methyl)oxetan-3-yl)phenyl)-6-(trifluoromethyl)picolinamide formate]	(1.2x)	200	230
